In article PMC3396595, “Identification of a Novel Calcium Binding Motif Based on the Detection of Sequence Insertions in the Animal Peroxidase Domain of Bacterial Proteins” (PLoS ONE, 2012):

Target: PepA-Nter (N-terminal ANP-like domain of PepA, PP_2561) (Pseudomonas putida, UniProt Q88JT6)
Assay: peroxidase assay, quinoneimine formation at […] nm
Assay type: biochemical
Settings: heme-reconstituted; electron donor with phenol; H2O2 0.25-45 mM varied; potassium phosphate pH 7.0, 25 °C

Sequence of PepA-Nter (N-terminal ANP-like domain of PepA, PP_2561) (Q88JT6 1-875 limits assumed): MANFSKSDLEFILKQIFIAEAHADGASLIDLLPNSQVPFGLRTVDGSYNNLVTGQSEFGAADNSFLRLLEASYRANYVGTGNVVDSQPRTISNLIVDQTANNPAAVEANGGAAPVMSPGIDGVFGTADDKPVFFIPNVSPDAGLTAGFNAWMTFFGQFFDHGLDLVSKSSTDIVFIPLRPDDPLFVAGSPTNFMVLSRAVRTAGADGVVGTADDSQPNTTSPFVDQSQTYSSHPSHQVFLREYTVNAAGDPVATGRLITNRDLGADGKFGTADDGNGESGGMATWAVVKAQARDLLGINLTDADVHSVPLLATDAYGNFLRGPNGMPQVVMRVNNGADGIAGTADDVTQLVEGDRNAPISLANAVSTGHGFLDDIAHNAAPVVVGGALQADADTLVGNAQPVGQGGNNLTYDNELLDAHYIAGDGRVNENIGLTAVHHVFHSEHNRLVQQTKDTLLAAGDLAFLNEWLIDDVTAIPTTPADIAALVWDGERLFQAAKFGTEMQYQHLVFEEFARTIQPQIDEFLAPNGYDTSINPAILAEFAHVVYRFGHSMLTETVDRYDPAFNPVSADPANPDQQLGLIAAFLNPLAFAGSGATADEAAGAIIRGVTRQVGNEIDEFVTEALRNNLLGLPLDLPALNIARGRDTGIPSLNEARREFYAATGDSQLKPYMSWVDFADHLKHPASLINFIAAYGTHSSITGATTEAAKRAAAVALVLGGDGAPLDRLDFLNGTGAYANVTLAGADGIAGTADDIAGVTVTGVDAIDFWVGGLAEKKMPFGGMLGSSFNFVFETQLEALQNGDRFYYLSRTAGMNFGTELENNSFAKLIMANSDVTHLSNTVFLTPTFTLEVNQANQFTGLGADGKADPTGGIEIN

For `Cc1c(N)c(=O)n(-c2ccccc2)n1C` [4-aminoantipyrine], the “peroxidase assay, quinoneimine formation at 510 nm” value was “oxidation of 4-aminoantipyrine (same electron donor than the one used in this study)”.
